From patent publication US20080161367A1, “Insecticidal Mixtures” (BASF Aktiengesellschaft, priority 2005, published 2008)

Legend:
[1] = test system: Western corn rootworm larvae (Diabrotica virgifera virgifera); assay: Seed treatment of field corn seeds, Western corn rootworm larval mortality; format: in vivo; conditions: corn seed treatment at the rate printed in the row (fipronil 0.005, clothianidin 0.05 g a.i./100 kg seed); 2nd instar larvae; mortality 1 day after infestation, adjusted for untreated controls
Description: (§1) Each mixture partner has been evaluated separately at the same rates as used in the mixtures. Synergism was determined by comparing the expected biological effect on plant health or on disease control from the mixture based on the individual effects from the separate partners to the biological effect observed with the mixture. Abbott's formula has be used to make this comparison.
Field corn seeds (Zea mays) were treated with a mixture of commercially available fipronil SC formulation (REGENT® 4 SC—479 g a.i./L) at rates of 0.005 g ai/100 kg seed with commercially available clothianidin formulation (PONCHO® 600—600 g a.i./L) at 0.05 g ai/100 kg seed. In addition, there was a treatment with each mixture partner at its respective solo rate. The carrier for all treatments was water. The respective formulation(s) and water were mixed in a 20 ml vial. Then 25 seeds were added, and the vial was vortexed. After treatment, seeds were allowed to dry. […] Petri plates were incubated at 26° C., and insect mortality was evaluated 1 day later. Percent mortalities were calculated adjusting for any mortality in the untreated controls.
The expected percent mortality for the mixture was calculated based on the percent mortalities observed when each mixture partner was applied solo at the rate it was applied in the mixture using Abbott's formula as follows: […]

[2] = test system: Colorado potato beetle larvae (Leptinotarsa decemlineata); assay: Foliar insecticidal activity on eggplant, Colorado potato beetle feeding damage; format: in vivo; conditions: foliar spray on eggplant at 0.05 ppm each; 2nd instar larvae; evaluated 3 days later, relative to untreated controls
Description: as §1
The foliage of eggplant plants (Solanum melongena, variety Black Beauty) at the 4th to 5th true-leaf stage was treated with a mixture of commercially available fipronil SC formulation (REGENT® 4 SC, 479 g a.i./L-) at 0.05 ppm with commercially available clothianidin formulation (PONCHO® 600, 600 g a.i./L) at 0.05 ppm. In addition, there was a treatment with each mixture partner at its respective solo rate. Treatment was by spraying the leaves to near run-off. The carrier for all treatments was water. Two leaves on each of three plants were sprayed per treatment. […] Insect feeding damage to the foliage was evaluated 3 days later. Percent reductions in insect feeding damage were calculated based on the untreated controls.
The expected reduction in feeding damage for the mixture was calculated based on the percent reductions observed when each mixture partner was applied solo at the rate it was applied in the mixture using Abbott's formula as follows: […]

Row | Compound | Actual Mixture Response [% Larval Mortality] [1] | Actual Mixture Response [% Reduction in Insect Feeding Injury] [2]
1 | CN/C(=N\[N+](=O)[O-])NCc1cnc(Cl)s1 [Clothianidin, clothianidin] | 14% | 21%
2 | N#Cc1nn(-c2c(Cl)cc(C(F)(F)F)cc2Cl)c(N)c1[S+]([O-])C(F)(F)F (stereo not shown) [Fipronil, fipronil] | 0% | 0%
